Values quoted from earlier work, collected in patent publication US20210230662A1, “Methods for the Treatment of Solid Tumor Cancers Using Illudins and Biomarkers” (Lantern Pharma Inc., priority 2018, published 2021).

Columns and labels:
tumor cells = details: at certain doses
normal cells = details: at certain doses

CC1=C(CO)C2=C(C)C3(CC3)[C@@](C)(O)C(=O)C2=C1 [Irofulven, HydroxyMethylAcylfulvene]
susceptibility of tumor cells to dual damaging activity (tumor cells): highly susceptible | response of normal cells to the cell-killing drug (normal cells): marginal response
